Patent US7999132B2, “Anthranilic acid derivative or salt thereof” (Toyama Chemical Co., Ltd., priority 2004, dated 2011)
Structures can show the parent of a compound that is named as a salt.

Each compound was assayed on DBA/1J mice (assay: Type II Collagen-induced Arthritis in Mice). Details: 30 mg/kg orally once a day from the 21st day to the 35th day; X-ray of the four limbs on the 36th day; male DBA/1J mice.
Assay type: in vivo
Procedure: Type II Collagen-induced Arthritis in Mice
Eight-week old male DBA/1J mice were used (Charles River Laboratories Japan Inc.). 4 mg/mL bovine type II collagen (Collagen Gijutsu Kenshukai) dissolved in 0.01 mol/L of acetic acid aqueous solution and an equal amount of Freund's complete adjuvant (Chondorex) containing 1 mg/mL of killed tuberculosis bacillus were added to prepare an emulsion, and 0.1 mL thereof was intradermally injected at the base of tail. Similar treatment was conducted on the 21st day to cause arthritis. The test compound was suspended in 0.5% methylcellulose aqueous solution, and 30 mg/kg was orally administered once a day from the 21st day to the 35th day. In the control group, 0.5% methylcellulose aqueous solution was administered in the same manner. The severity of arthritis was estimated by scoring at zero point for an animal without change; one point for an animal with swelling at the one or two finger joint or light swelling only at the carpal or tarsal joint; two points for an animal with severe swelling at the carpal or tarsal joint or with swelling at three or more finger joints; three points for an animal with severe swelling along the whole foreleg or hindleg and thus counting 12 points at the maximum for the four limbs as arthritis score. […] The inhibitory rate was determined by the following expression. […]
O=C(Nc1cc(CCc2ccccc2)ccc1C(=O)O)c1ccccc1 [Example 25, 2-(benzamido)-4-phenethylbenzoic acid] was tested, and the “inhibitory action on bone destruction (bone destruction score)” value was “exhibited inhibitory action”.

Same assay, conditions: 30 mg/kg orally once a day from the 21st day to the 35th day; male DBA/1J mice
In the case of O=C(Nc1cc(CCc2ccccc2)ccc1C(=O)O)c1ccccc1 [Example 25, 2-(benzamido)-4-phenethylbenzoic acid], the “inhibitory action on arthritis (arthritis score)” value is reported as “exhibited inhibitory action”.

The compounds below were run on MMP-13 (assay: MMP-13 Production Inhibition Test). Details: Homo sapiens; 30 μmol/L; SW1353 cells stimulated with IL-1β 10 ng/mL; MMP-13 in culture supernatant by ELISA 16 hours after stimulation; read-out: Inhibition rate (%) at 30 μmol/L.
Assay type: cell-based, human
Procedure: MMP-13 Production Inhibition Test
6.8×10^3 human cartilage derived cell line SW1353 cells were suspended in 100 μL of Dulbecco modified Eagle's medium supplemented with 10% fetal calf serum, plated on 96-well plates and cultured for 3 days. After the culture medium was changed to Dulbecco modified Eagle's medium containing 0.2% lactalbumin hydrolysate and the cells were cultured for 6 hours, […] were added and then IL-1β was added to obtain the final concentration of 10 ng/mL 1 hour later. 16 hours after the stimulation, supernatant was collected and the amount of MMP-13 in the culture supernatant was determined with an ELISA kit (Amersham). The inhibition rate was calculated from the amount of MMP-13 in the presence of a test compound assuming that the amount of MMP-13 was 100% in the absence of the test compound.
O=C(Nc1cc(CCc2ccccc2)ccc1C(=O)O)c1ccccc1 [Example 25, 2-(benzamido)-4-phenethylbenzoic acid] showed an inhibition at 30 µM of 86%.
In the case of O=C(Nc1cc(Oc2ccccc2)ccc1C(=O)O)c1ccc(N2CCOCC2)nc1 [Example 330, 2-(6-Morpholinopyridine-3-carboxamido)-4-phenoxybenzoic acid], the inhibition at 30 µM is reported as 68%.
Work on O=C(Nc1cc(-c2ccccc2)ccc1C(=O)O)c1cc(-c2ccccc2)ncn1 [Example 349, 4-Phenyl-2-(6-phenylpyrimidine-4-carboxamido)benzoic acid] yielded an inhibition at 30 µM of 95%.
In the case of O=C(/C=C/c1cccc(Cl)c1)Nc1cc(-c2ccccc2)ccc1C(=O)O [Example 358, 2-((E)-3-(3-Chlorophenyl)acrylamido)-4-phenylbenzoic acid], the inhibition at 30 µM is reported as 99%.
With O=C(/C=C/c1ccc(Cl)c(Cl)c1)Nc1cc(Oc2ccccc2)ccc1C(=O)O [Example 382, 2-((E)-3-(3,4-Dichlorophenyl)acrylamido)-4-phenoxybenzoic acid] the inhibition at 30 µM was 98%.
Work on O=C(Nc1cc(-c2ccccc2)ccc1C(=O)O)c1ccc(O)cc1 [Example 399, 2-(4-Hydroxybenzamido)-4-phenylbenzoic acid] yielded an inhibition at 30 µM of 79%.
Compound COc1ccc(-c2ccc(C(=O)O)c(NC(=O)c3ccccc3)c2)cc1OC [Example 411, 2-(Benzamido)-4-(3,4-dimethoxyphenyl)benzoic acid] has an inhibition at 30 µM of 81%.
Compound O=C(Nc1cc(-n2cnc3ccccc32)ccc1C(=O)O)c1ccccc1 [Example 415, 2-(benzamido)-4-(1H-benzimidazol-1-yl)benzoic acid hydrochloride] has an inhibition at 30 µM of 97%.
COc1ccc(-c2ccc(C(=O)O)c(NC(=O)c3ccccc3)c2)cc1Cl [Example 423, 2-(Benzamido)-4-(3-chloro-4-methoxyphenyl)benzoic acid] showed an inhibition at 30 µM of 98%.
For O=C(Nc1cc(-c2cc(Cl)ccc2Cl)ccc1C(=O)O)c1ccccc1 [Example 425, 2-(Benzamido)-4-(2,5-dichlorophenyl)benzoic acid], the inhibition at 30 µM was 99%.
Work on Cc1ccc(-c2ccc(C(=O)O)c(NC(=O)c3ccccc3)c2)cc1Cl [Example 426, 2-(benzamido)-4-(3-chloro-4-methylphenyl)benzoic acid] yielded an inhibition at 30 µM of 98%.
O=C(Nc1cc(CCc2ccccc2)ccc1C(=O)O)c1ccc(Cl)c(Cl)c1 [Example 431, 2-(3,4-Dichlorobenzamido)-4-phenethylbenzoic acid] was tested, and the inhibition at 30 µM was 98%.
Compound O=C(Nc1cc(CCc2ccccc2)ccc1C(=O)O)c1ccc(F)c(F)c1 [Example 433, 2-(3,4-Difluorobenzamido)-4-phenethylbenzoic acid] has an inhibition at 30 µM of 98%.
O=C(Nc1cc(Oc2ccccc2)ccc1C(=O)O)c1ccc(Cl)c(Cl)c1 [Example 442, 2-(3,4-Dichlorobenzamido)-4-phenoxybenzoic acid] gave an inhibition at 30 µM of 99%.
O=C(Nc1cc(-c2ccccc2)ccc1C(=O)O)c1ccc(F)c(F)c1 [Example 450, 2-(3,4-Difluorobenzamido)-4-phenylbenzoic acid] showed an inhibition at 30 µM of 98%.
In the case of O=C(CCCc1ccccc1)Nc1cc(Oc2ccccc2)ccc1C(=O)O [Example 467, 4-phenoxy-2-(4-phenylbutanamido)benzoic acid], the inhibition at 30 µM is reported as 90%.
In the case of O=C(Nc1cc(Oc2ccccc2)ccc1C(=O)O)c1ccc(-n2cccc2)cc1 [Example 495, 4-phenoxy-2-(4-(1H-pyrrol-1-yl)benzamido)benzoic acid], the inhibition at 30 µM is reported as 99%.
For O=C(Nc1cc(Oc2ccccc2)ccc1C(=O)O)c1ccc(-n2cccc2)nc1 [Example 499, 4-Phenoxy-2-(6-(1H-pyrrol-1-yl)pyridine-3-carboxamido)benzoic acid], the inhibition at 30 µM was 99%.
With O=C(Nc1cc(Oc2ccccc2)ccc1C(=O)O)c1cccc(-c2ccccc2)c1 [Example 503, 2-(Biphenyl-3-carboxamido)-4-phenoxybenzoic acid] the inhibition at 30 µM was 99%.
CC(=O)c1cccc(C(=O)Nc2cc(Oc3ccccc3)ccc2C(=O)O)c1 [Example 505, 2-(3-Acetylbenzamido)-4-phenoxybenzoic acid] was tested, and the inhibition at 30 µM was 82%.
Compound O=C(Nc1cc(-c2ccccc2)ccc1C(=O)O)c1ccc(-n2cccc2)nc1 [Example 509, 4-Phenyl-2-(6-(1H-pyrrol-1-yl)pyridine-3-carboxamido) benzoic acid] has an inhibition at 30 µM of 77%.
O=C(Nc1cc(-c2ccccc2)ccc1C(=O)O)c1cccc(-c2ccccc2)c1 [Example 512, 2-(Biphenyl-3-carboxamido)-4-phenylbenzoic acid] showed an inhibition at 30 µM of 99%.
Work on CC(=O)c1cccc(C(=O)Nc2cc(-c3ccccc3)ccc2C(=O)O)c1 [Example 514, 2-(3-Acetylbenzamido)-4-phenylbenzoic acid] yielded an inhibition at 30 µM of 91%.
For O=C(Nc1cc(CCc2ccccc2)ccc1C(=O)O)c1ccc(N2CCCCC2)nc1 [Example 525, 4-phenethyl-2-(6-(piperidin-1-yl)pyridine-3-carboxamido)benzoic acid], the inhibition at 30 µM was 87%.
For O=C(Nc1cc(Oc2cc(F)cc(F)c2)ccc1C(=O)O)c1ccccc1 [Example 539, 2-(benzamido)-4-(3,5-difluorophenoxy)benzoic acid], the inhibition at 30 µM was 97%.
For Cc1cccc(Oc2ccc(C(=O)O)c(NC(=O)c3ccccc3)c2)c1C [Example 541, 2-(Benzamido)-4-(2,3-dimethylphenoxy)benzoic acid], the inhibition at 30 µM was 97%.
In the case of COc1cccc(Oc2ccc(C(=O)O)c(NC(=O)c3ccccc3)c2)c1 [Example 543, 2-(Benzamido)-4-(3-methoxyphenoxy)benzoic acid], the inhibition at 30 µM is reported as 85%.
Work on O=C(Nc1cc(Oc2cccc(Cl)c2)ccc1C(=O)O)c1ccccc1 [Example 551, 2-(benzamido)-4-(3-chlorophenoxy)benzoic acid] yielded an inhibition at 30 µM of 86%.
In the case of O=C(Nc1cc(Oc2ccc(F)cc2)ccc1C(=O)O)c1ccccc1 [Example 560, 2-(Benzamido)-4-(4-fluorophenoxy)benzoic acid], the inhibition at 30 µM is reported as 85%.
For Cc1cccc(C)c1Oc1ccc(C(=O)O)c(NC(=O)c2ccccc2)c1 [Example 564, 2-(Benzamido)-4-(2,6-dimethylphenoxy)benzoic acid], the inhibition at 30 µM was 97%.
O=C(Nc1cc(Oc2ccc(C(F)(F)F)cc2)ccc1C(=O)O)c1ccccc1 [Example 570, 2-(Benzamido)-4-(4-(trifluoromethyl)phenoxy)benzoic acid] gave an inhibition at 30 µM of 98%.
